According to patent US8471005B2 (Cephalon, Inc., priority 2008, dated 2013):
Read-outs that look alike come from different tables or passages of the source.

Key:
ALK = target: T1, ALK (Homo sapiens, UniProt Q9UM73); assay: ALK Kinase Assay (ELISA/TRF, PLC-γ substrate); format: biochemical; details: read-out: ALK Potency
T1 construct: host or cells: baculovirus expression system
Summary of the method: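 Time-resolved fluorescence ELISA using Eu-N1 PT66 antibody to detect phosphorylated PLC-γ (coated at 10 μg/mL). Enzyme at 30 ng/ml ALK; 15 min incubation, 37° C.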

JAK2 = target: T2, JAK2 (Homo sapiens, UniProt O60674); assay: Recombinant Human JAK2 Kinase Assay (TRF); format: biochemical; details: read-out: JAK2 Potency
T2 construct: host or cells: baculovirus expression system
Summary of the method: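 Europium-labelled PY100 antibody reported tyrosine phosphorylation of a Neutravidin-captured biotinyl 15-mer peptide by JAK2 (baculovirus-expressed, 15 ng/ml). Conditions: 20 mM HEPES pH 7.2, 0.2 μM ATP, 1 mM MnCl2, 0.1% BSA, DMSO 2.5% final, 20 min at room temperature.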

[1] = ALK kinase inhibition, 1 μM ATP
[2] = JAK2 kinase inhibition, 0.2 μM ATP

T1 sequence (Q9UM73 19-1620): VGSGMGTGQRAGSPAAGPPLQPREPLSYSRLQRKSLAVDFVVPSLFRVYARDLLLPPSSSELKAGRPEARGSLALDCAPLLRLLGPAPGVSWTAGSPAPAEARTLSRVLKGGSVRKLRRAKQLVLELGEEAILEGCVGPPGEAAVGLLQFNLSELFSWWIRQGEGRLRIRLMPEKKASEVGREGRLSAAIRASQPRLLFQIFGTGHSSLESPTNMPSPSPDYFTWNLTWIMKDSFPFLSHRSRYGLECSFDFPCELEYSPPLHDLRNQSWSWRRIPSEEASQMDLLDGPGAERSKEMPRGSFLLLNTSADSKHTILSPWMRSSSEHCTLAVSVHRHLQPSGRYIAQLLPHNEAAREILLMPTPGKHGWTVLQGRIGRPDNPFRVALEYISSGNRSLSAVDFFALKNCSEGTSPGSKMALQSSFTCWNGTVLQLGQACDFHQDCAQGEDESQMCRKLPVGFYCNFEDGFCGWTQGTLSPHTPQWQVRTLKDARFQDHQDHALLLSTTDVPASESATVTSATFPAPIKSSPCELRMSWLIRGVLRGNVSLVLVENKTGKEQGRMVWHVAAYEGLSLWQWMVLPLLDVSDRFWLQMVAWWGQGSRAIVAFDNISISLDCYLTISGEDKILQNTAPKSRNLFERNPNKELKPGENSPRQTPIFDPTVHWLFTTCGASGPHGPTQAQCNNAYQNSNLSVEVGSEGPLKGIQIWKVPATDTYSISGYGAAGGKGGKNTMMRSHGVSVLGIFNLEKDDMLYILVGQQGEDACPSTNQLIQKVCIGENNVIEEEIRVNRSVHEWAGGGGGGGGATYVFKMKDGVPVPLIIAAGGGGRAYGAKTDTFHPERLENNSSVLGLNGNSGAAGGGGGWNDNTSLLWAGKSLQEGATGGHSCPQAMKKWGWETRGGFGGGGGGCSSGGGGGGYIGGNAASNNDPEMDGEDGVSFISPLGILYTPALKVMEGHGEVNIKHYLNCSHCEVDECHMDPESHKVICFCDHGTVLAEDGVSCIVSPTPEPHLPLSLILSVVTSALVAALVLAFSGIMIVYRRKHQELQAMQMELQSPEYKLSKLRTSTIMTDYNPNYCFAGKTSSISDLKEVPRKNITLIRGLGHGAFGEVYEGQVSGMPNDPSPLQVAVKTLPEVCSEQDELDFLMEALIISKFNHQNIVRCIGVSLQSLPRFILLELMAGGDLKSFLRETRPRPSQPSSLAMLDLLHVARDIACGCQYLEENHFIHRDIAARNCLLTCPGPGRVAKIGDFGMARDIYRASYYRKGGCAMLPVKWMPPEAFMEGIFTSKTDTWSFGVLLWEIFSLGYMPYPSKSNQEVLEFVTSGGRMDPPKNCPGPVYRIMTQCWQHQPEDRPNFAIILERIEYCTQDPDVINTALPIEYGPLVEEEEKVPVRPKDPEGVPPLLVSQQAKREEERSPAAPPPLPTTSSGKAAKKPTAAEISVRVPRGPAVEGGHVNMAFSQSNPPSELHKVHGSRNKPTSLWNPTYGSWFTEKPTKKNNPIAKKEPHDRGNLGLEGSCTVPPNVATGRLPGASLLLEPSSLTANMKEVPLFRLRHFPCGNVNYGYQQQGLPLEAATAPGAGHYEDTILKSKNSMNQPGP
T2 sequence (O60674 whole entry): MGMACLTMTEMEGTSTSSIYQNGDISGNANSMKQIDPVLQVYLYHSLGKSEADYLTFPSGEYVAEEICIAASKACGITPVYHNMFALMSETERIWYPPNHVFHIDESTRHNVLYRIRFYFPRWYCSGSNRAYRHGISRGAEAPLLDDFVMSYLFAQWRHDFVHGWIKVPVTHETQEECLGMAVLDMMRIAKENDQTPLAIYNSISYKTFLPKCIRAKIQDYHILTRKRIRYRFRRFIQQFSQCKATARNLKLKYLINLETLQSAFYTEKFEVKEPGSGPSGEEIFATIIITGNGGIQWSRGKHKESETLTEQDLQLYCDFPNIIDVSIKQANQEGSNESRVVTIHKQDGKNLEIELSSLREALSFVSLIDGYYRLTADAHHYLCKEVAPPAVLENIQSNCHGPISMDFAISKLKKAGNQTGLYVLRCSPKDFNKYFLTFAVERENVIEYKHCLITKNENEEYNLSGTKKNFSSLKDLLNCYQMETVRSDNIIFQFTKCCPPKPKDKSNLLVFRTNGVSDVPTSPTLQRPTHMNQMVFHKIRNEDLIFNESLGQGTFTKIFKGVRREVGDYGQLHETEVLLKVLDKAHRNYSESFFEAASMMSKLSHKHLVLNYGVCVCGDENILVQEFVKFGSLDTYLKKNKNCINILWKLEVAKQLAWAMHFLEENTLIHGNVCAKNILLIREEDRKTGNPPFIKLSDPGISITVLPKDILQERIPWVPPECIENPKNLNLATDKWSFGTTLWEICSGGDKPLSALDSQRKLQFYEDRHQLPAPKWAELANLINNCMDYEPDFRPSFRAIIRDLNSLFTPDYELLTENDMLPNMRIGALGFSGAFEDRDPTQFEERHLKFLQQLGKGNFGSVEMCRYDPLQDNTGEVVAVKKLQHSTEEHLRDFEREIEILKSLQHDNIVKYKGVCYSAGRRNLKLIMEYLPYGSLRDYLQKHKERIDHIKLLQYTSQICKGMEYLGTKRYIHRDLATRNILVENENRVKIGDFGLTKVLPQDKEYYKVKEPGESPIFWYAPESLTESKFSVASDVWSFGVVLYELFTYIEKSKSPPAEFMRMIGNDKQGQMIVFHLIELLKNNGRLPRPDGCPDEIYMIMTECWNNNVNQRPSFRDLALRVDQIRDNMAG

Row | IC50 (ALK; [1]) [nM] | IC50 (JAK2; [2]) [nM] | IC50 (ALK; ALK Kinase Inhibition) [nM] | IC50 (JAK2; JAK2 Kinase Inhibition) [nM] | Molecule
1 | 100 to 1000 | < 100 | – | – | CCN1CCOC(c2ccc(Nc3ncc4ccc(-c5cccc(NS(C)(=O)=O)c5)n4n3)cc2)C1 (stereo not drawn) [Example 651, N-(3-{2-[4-(4-Ethyl-morpholin-2-yl)-phenylamino]-pyrrolo[2,1-f][1,2,4]triazin-7-yl}phenyl)methanesulfonamide]
2 | 100 to 1000 | < 100 | – | – | CN(c1ccccc1-c1ccc2cnc(Nc3ccc4c(c3)ncn4CCN3CCOCC3)nn12)S(C)(=O)=O [Example 1335, N-Methyl-N-(2-{2-[1-(2-morpholin-4-yl-ethyl)-1H-benzimidazol-5-ylamino]-pyrrolo[2,1-f][1,2,4]triazin-7-yl}-phenyl)-methanesulfonamide]
3 | – | – | 100 to 1000 | < 100 | CN(c1ccccc1-c1ccc2cnc(Nc3ccc(N4CCN(CC(N)=O)CC4)c(F)c3)nn12)S(C)(=O)=O [Example 1422, 2-[4-(2-Fluoro-4-{7-[2-(methanesulfonyl-methyl-amino)-phenyl]-pyrrolo[2,1-f][1,2,4]triazin-2-ylamino}-phenyl)-piperazin-1-yl]-acetamide]
4 | 1000 to 10000 | > 10000 | – | – | COc1cc2c(cc1Nc1ncc3ccc(-c4ccccc4N(C)S(C)(=O)=O)n3n1)CN(C(=O)OC(C)(C)C)C2 [Example 875, 5-{7-[2-(Methanesulfonyl-methyl-amino)-phenyl]-pyrrolo[2,1-f][1,2,4]triazin-2-ylamino}-6-methoxy-1,3-dihydro-isoindole-2-carboxylic acid tert-butyl ester]
5 | > 10000 | < 100 | – | – | CC(=O)N1CCc2ccc(Nc3ncc4ccc(-c5cccc(NC(=O)C(C)(C)C)c5)n4n3)cc21 [Example 882, N-{3-[2-(1-Acetyl-2,3-dihydro-1H-indol-6-ylamino)-pyrrolo[2,1-f][1,2,4]triazin-7-yl]-phenyl}-2,2-dimethyl-propionamide]
6 | 1000 to 10000 | < 100 | – | – | CN(c1ccccc1-c1ccc2cnc(-n3ccnc3)nn12)S(C)(=O)=O [Example 622, N-[2-(2-Imidazol-1-yl-pyrrolo[2,1-f][1,2,4]triazin-7-yl)-phenyl]-N-methyl-methanesulfonamide]
7 | 1000 to 10000 | < 100 | – | – | CN1CCN(c2ccc(Nc3ncc4ccc(-c5ccccc5OCC(=O)OC(C)(C)C)n4n3)cc2)CC1 [Example 1173, (2-{2-[4-(4-Methyl-piperazin-1-yl)-phenylamino]-pyrrolo[2,1-f][1,2,4]triazin-7-yl}-phenoxy)-acetic acid tert-butyl ester]
8 | 100 to 1000 | < 100 | – | – | COc1ccc(-c2ccc3cnc(Nc4ccc(N5CCN(CCO)CC5)cc4)nn23)cn1 [Example 1104, 2-(4-{4-[7-(6-Methoxy-pyridin-3-yl)-pyrrolo[2,1-f][1,2,4]triazin-2-ylamino]-phenyl}-piperazin-1-yl)-ethanol]
9 | – | – | 100 to 1000 | < 100 | (7-Pyridin-3-yl-pyrrolo[2,1-f][1,2,4]triazin-2-yl)-[4-(2-pyrrolidin-1-yl-ethoxy)-phenyl]-amine [Example 126]
10 | 100 to 1000 | < 100 | – | – | COc1ccccc1-c1ccc2cnc(Nc3ccc4c(c3)C(N)C(O)C4)nn12 (stereo not drawn) [Example 681, 1-Amino-6-[7-(2-methoxy-phenyl)-pyrrolo[2,1-f][1,2,4]triazin-2-ylamino]-indan-2-ol]
11 | – | – | 1000 to 10000 | < 100 | FC(F)(F)c1ccc(Cl)c(-c2ccc3cnc(Nc4ccc(N5CCOCC5)cc4)nn23)c1 [Example 70, [7-(2-Chloro-5-trifluoromethyl-phenyl)-pyrrolo[2,1-f][1,2,4]triazin-2-yl]-(4-morpholin-4-yl-phenyl)-amine]
12 | – | – | 100 to 1000 | < 100 | COc1ncccc1-c1ccc2cnc(Nc3ccc4c(c3)CCN(CC(=O)N(C)C)CC4)nn12 [Example 1572]
13 | < 100 | < 100 | – | – | COc1cc(C2CCN(C)CC2)ccc1Nc1ncc2ccc(-c3cccc(S(=O)(=O)NC(C)(C)C)c3)n2n1 [Example 692, N-tert-Butyl-3-{2-[2-methoxy-4-(1-methyl-piperidin-4-yl)-phenylamino]-pyrrolo[2,1-f][1,2,4]triazin-7-yl}-benzenesulfonamide]
14 | 100 to 1000 | < 100 | – | – | O=S1(=O)CCN(Cc2ccc(-c3ccc4cnc(Nc5ccc(N6CCOCC6)cc5)nn34)cc2)CC1 [Example 1032, {7-[4-(1,1-Dioxo-1$1(6)-thiomorpholin-4-ylmethyl)-phenyl]-pyrrolo[2,1-f][1,2,4]triazin-2-yl}-(4-morpholin-4-yl-phenyl)-amine]
15 | – | – | 100 to 1000 | < 100 | CN1CCN(Cc2nc3ccc(Nc4ncc5ccc(-c6ccccc6N(C)S(C)(=O)=O)n5n4)cc3[nH]2)CC1 [Example 1525, N-Methyl-N-(2-{2-[2-(4-methyl-piperazin-1-ylmethyl)-3H-benzimidazol-5-ylamino]-pyrrolo[2,1-f][1,2,4]triazin-7-yl}-phenyl)-methanesulfonamide]

Further lines, the molecule ahead of its results:

Row | Molecule | IC50 (ALK; [1]) [nM] | IC50 (JAK2; [2]) [nM] | IC50 (ALK; ALK Kinase Inhibition) [nM] | IC50 (JAK2; JAK2 Kinase Inhibition) [nM]
16 | COc1cc([C@]2(C#N)CC[C@H](N3CCOCC3)CC2)ccc1Nc1ncc2ccc(-c3ccccc3N(C)S(C)(=O)=O)n2n1 [Example 1245, N-{2-[2-({4-[trans-1-cyano-4-(morpholin-4-yl)cyclohexyl]-2-methoxyphenyl}amino)pyrrolo[2,1-f][1,2,4]triazin-7-yl]phenyl}-N-methylmethanesulfonamide] | < 100 | 100 to 1000 | – | –
17 | COc1ccc(Nc2ncc3ccc(-c4cccnc4)n3n2)cc1N1CCOCC1 [Example 396, (4-Methoxy-3-morpholin-4-yl-phenyl)-(7-pyridin-3-yl-pyrrolo[2,1-f][1,2,4]triazin-2-yl)-amine] | – | – | 100 to 1000 | < 100
18 | O=S1(=O)CCCN1c1cccc(-c2ccc3cnc(Nc4cccc(-n5cccn5)c4)nn23)c1 [Example 1506, 7-[3-(1,1-Dioxido-1,2-thiazolidin-2-yl)phenyl]-N-[3-(1H-pyrazol-1-yl)phenyl]pyrrolo[2,1-f][1,2,4]triazin-2-amine] | – | – | > 10000 | < 100
19 | N-{2-[2-(4-{4-[1-(2-Hydroxy-ethyl)-piperidin-4-yl]-[1,4]diazepan-1-yl}-2-methoxy-phenylamino)-pyrrolo[2,1-f][1,2,4]triazin-7-yl]-phenyl}-N-methyl-methanesulfonamide [Example 802] | < 100 | 1000 to 10000 | – | –
20 | CC(=O)Nc1cc(Nc2ncc3ccc(-c4cccc(S(=O)(=O)NC(C)(C)C)c4)n3n2)ccc1C(C)(C)C [Example 1387, N-{2-tert-Butyl-5-[7-(3-tert-butylsulfamoyl-phenyl)-pyrrolo[2,1-f][1,2,4]triazin-2-ylamino]-phenyl}-acetamide] | – | – | 100 to 1000 | < 100
21 | NC(=O)CN1CCC(c2ccc(Nc3ncc4ccc(-c5ncccn5)n4n3)cc2)CC1 [Example 1568, 2-{4-[4-(7-Pyrimidin-2-yl-pyrrolo[2,1-f][1,2,4]triazin-2-ylamino)-phenyl]-piperidin-1-yl}-acetamide] | – | – | 1000 to 10000 | < 100
22 | COc1cc(C2(C#N)CCC(O)CC2)ccc1Nc1ncc2ccc(-c3ccccc3N(C)S(C)(=O)=O)n2n1 (stereo not drawn) [Example 1253, N-(2-{2-[4-(1-Cyano-4-hydroxy-cyclohexyl)-2-methoxy-phenylamino]-pyrrolo[2,1-f][1,2,4]triazin-7-yl}-phenyl)-N-methyl-methanesulfonamide] | < 100 | 100 to 1000 | – | –
23 | Fc1cc(N2CCOCC2)ccc1Nc1ncc2ccc(-c3cccnc3)n2n1 [Example 372, (2-Fluoro-4-morpholin-4-yl-phenyl)-(7-pyridin-3-yl-pyrrolo[2,1-f][1,2,4]triazin-2-yl)-amine] | – | – | 100 to 1000 | < 100
24 | Cn1cc(-c2ccc3cnc(Nc4cccc(N5CCCC5=O)c4)nn23)cn1 [Example 967, 1-{3-[7-(1-Methyl-1H-pyrazol-4-yl)-\pyrrolo[2,1-f][1,2,4]triazin-2-ylamino]-phenyl}-pyrrolidin-2-one] | 1000 to 10000 | < 100 | – | –
25 | COc1ccc(Cl)cc1-c1ccc2cnc(-n3cnc4cnccc43)nn12 [Example 323, 1-[7-(5-Chloro-2-methoxy-phenyl)-pyrrolo[2,1-f][1,2,4]triazin-2-yl]-1H-imidazo[4,5-c]pyridine] | – | – | 1000 to 10000 | 100 to 1000
26 | CN1CCOc2ccc(Nc3ncc4ccc(-c5ccccc5N(C)S(C)(=O)=O)n4n3)cc21 [Example 641, N-Methyl-N-{2-[2-(4-methyl-3,4-dihydro-2H-benzo[1,4]oxazin-6-ylamino)-pyrrolo[2,1-f][1,2,4]triazin-7-yl]-phenyl}methanesulfonamide] | 100 to 1000 | < 100 | – | –
27 | COc1cc(N2CCC[C@H](CN3CCN(C)CC3)C2)ccc1Nc1ncc2ccc(-c3ccccc3OC)n2n1 [Example 466, {2-Methoxy-4-[(R)-3-(4-methyl-piperazin-1-ylmethyl)-piperidin-1-yl]-phenyl}-[7-(2-methoxy-phenyl)-pyrrolo[2,1-f][1,2,4]triazin-2-yl]-amine] | – | – | < 100 | 100 to 1000
28 | O=S(=O)(CC1CC1)c1cccc(-c2ccc3cnc(Nc4ccc5[nH]ncc5c4)nn23)c1 [Example 1314] | 1000 to 10000 | < 100 | – | –
29 | COc1ccccc1-c1ccc2cnc(Nc3ccc(C4CC5CCC(C4)N5C)cc3)nn12 (stereo not drawn) [Example 945, [7-(2-Methoxy-phenyl)-pyrrolo[2,1-f][1,2,4]triazin-2-yl]-[4-(8-methyl-8-azabicyclo[3.2.1]oct-3-yl)-phenyl]-amine] | < 100 | < 100 | – | –
30 | CC(C)(C)NS(=O)(=O)c1cccc(-c2ccc3cnc(Nc4ccc5cn[nH]c5c4)nn23)c1 [Example 1327, N-tert-Butyl-3-[2-(1H-indazol-6-ylamino)-pyrrolo[2,1-f][1,2,4]triazin-7-yl]-benzenesulfonamide] | 1000 to 10000 | < 100 | – | –
